This note sets out measurements from PubChem BioAssay (NCI).

SMILES strings stand for the structures. Values joined by “and” are separate entries in the source; they are usually repeats but may differ in a detail not shown here. Equal entries are not always repeated.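 Tested at 5 concentrations; 48 h exposure; 96-well plates; endpoints linearly interpolated, else capped at highest concentration. GI50 marks 50% less growth. TGI is the concentration that stops growth completely.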

Some test systems named below: RPMI-8226 leukemia; CCRF-CEM leukemia; SF-268 CNS; SK-MEL-28 melanoma; RXF 393 renal; NCI-H460 lung; EKVX NSCLC; K-562 leukemia; OVCAR-8 ovarian; CAKI-1 renal.
What all share (assay): DTP human tumour cell line panel, 48 h

For the compound `CCOC(=O)c1ccc(N=Nc2cc(C(=O)OCC)ccc2O)cc1`, the TGI in the test on RPMI-8226 leukemia, in the test with CCRF-CEM leukemia, in the test on SF-268 CNS, in the test on SK-MEL-28 melanoma, in the test with RXF 393 renal and with NCI-H460 lung was > 100 µM each time. For the same compound, the TGI in the test on EKVX NSCLC is 41.8 µM; in the test with K-562 leukemia it was > 100 µM; with OVCAR-8 ovarian, > 100 µM; in the test on CAKI-1 renal, > 100 µM.
With `CN(C)CCC(=O)C(=Cc1ccc(O)cc1)C(=O)CCN(C)C`, the GI50 in the test on RPMI-8226 leukemia is 27.8 µM; in the test on CCRF-CEM leukemia, 43.4 µM; in the test with SF-268 CNS, > 100 µM; with SK-MEL-28 melanoma, > 100 µM; in the test on RXF 393 renal, > 100 µM; in the test with NCI-H460 lung, > 100 µM. The GI50 in the test with EKVX NSCLC was > 100 µM; in the test with OVCAR-8 ovarian it was > 100 µM; in the test with CAKI-1 renal, 16.4 µM. The TGI in the test on RPMI-8226 leukemia, in the test on CCRF-CEM leukemia, in the test with SF-268 CNS, with SK-MEL-28 melanoma, in the test on RXF 393 renal and in the test with NCI-H460 lung was > 100 µM each time. For the same compound, the values for the TGI in the test with EKVX NSCLC, in the test on OVCAR-8 ovarian and with CAKI-1 renal were > 100 µM, > 100 µM and 32.5 µM, respectively.
For `O=C1CCC(=O)c2c1c(O)c1ccncc1c2O`, the TGI in the test with RPMI-8226 leukemia is 55.5 µM; in the test on CCRF-CEM leukemia, 39.4 µM; in the test on SK-MEL-28 melanoma it was 34.8 µM; in the test on RXF 393 renal, 35.6 µM; with NCI-H460 lung, 30.7 µM; in the test on EKVX NSCLC, 47.6 µM. The TGI is 44 µM with K-562 leukemia, 25.3 µM with OVCAR-8 ovarian and 42.4 µM in the test with CAKI-1 renal.
For `COC12OCCN(C)C1=CC(=O)C1=NNC(C)C12` (stereo unspecified), the TGI in the test on RPMI-8226 leukemia, with CCRF-CEM leukemia, in the test on SK-MEL-28 melanoma, with RXF 393 renal, with NCI-H460 lung and in the test on EKVX NSCLC was > 100 µM each time. In addition, the TGI with K-562 leukemia, in the test with OVCAR-8 ovarian and with CAKI-1 renal was > 100 µM each time.
Take `O=C(O)c1ccc(C(=O)O)c2c(C(=O)O)ccc(C(=O)O)c12`: the TGI in the test with RPMI-8226 leukemia, in the test with SF-268 CNS, in the test with SK-MEL-28 melanoma, in the test on RXF 393 renal, in the test with NCI-H460 lung and in the test with EKVX NSCLC was > 100 µM in each case. In addition, the TGI in the test on K-562 leukemia, with OVCAR-8 ovarian and with CAKI-1 renal was > 100 µM throughout.
As for `S=c1[nH]c2c(Cl)c(Cl)c(Cl)c(Cl)c2[nH]1`, the TGI amounted to 30.1 µM in the test with RPMI-8226 leukemia; 19.5 µM in the test with CCRF-CEM leukemia; 42.7 µM in the test with SF-268 CNS; 35.4 µM in the test on RXF 393 renal; 40.6 µM in the test with NCI-H460 lung; 37.4 µM with EKVX NSCLC. The results for the TGI in the test on K-562 leukemia, with OVCAR-8 ovarian and in the test on CAKI-1 renal were 38.4 µM, 57.4 µM and 64.7 µM, respectively.
As to `C[C@@]12CCC[C@@](C)(C(=O)O)C1CC[C@]13CC(=O)[C@](CO)(C1)[C@@H](O)CC32` (stereo partly specified), the GI50 in the test with RPMI-8226 leukemia, in the test with SF-268 CNS, with SK-MEL-28 melanoma, with RXF 393 renal, with NCI-H460 lung and in the test on EKVX NSCLC was > 100 µM throughout. Also, the GI50 with K-562 leukemia, with OVCAR-8 ovarian and in the test with CAKI-1 renal was > 100 µM each time. The TGI with RPMI-8226 leukemia, in the test on SF-268 CNS, in the test with SK-MEL-28 melanoma, in the test with RXF 393 renal, with NCI-H460 lung and in the test on EKVX NSCLC was > 100 µM each time. Besides, the TGI in the test with K-562 leukemia, with OVCAR-8 ovarian and in the test with CAKI-1 renal was > 100 µM in each case.
Turning to `C/C(=N\NC(=S)N1CCCCCC1)c1ccccn1`, the TGI in the test with RPMI-8226 leukemia was 0.321 µM and 0.132 µM; in the test with SF-268 CNS, 4.19 µM; in the test with SK-MEL-28 melanoma, 0.295 µM; in the test on RXF 393 renal, 2.05 µM and 0.658 µM; in the test with NCI-H460 lung it was 1.47 µM and 2.22 µM; in the test on EKVX NSCLC it was 1.84 µM and 3.34 µM. The TGI in the test on K-562 leukemia was 1.92 µM and 4.53 µM; with OVCAR-8 ovarian it was 3.48 µM and 4.57 µM; in the test with CAKI-1 renal, 5.45 µM and 10.4 µM. The GI50 in the test with RXF 393 renal was 0.117 µM; in the test on NCI-H460 lung, 0.0421 µM; with EKVX NSCLC, 0.053 µM; with CAKI-1 renal, < 0.0393 µM.
Take `CN(C)CCSc1cc(-c2ccccc2)c2ccccc2n1`: the TGI in the test with RPMI-8226 leukemia was > 100 µM; with CCRF-CEM leukemia, 33.3 µM; in the test with SF-268 CNS, 27.1 µM; in the test with SK-MEL-28 melanoma, 17.9 µM; with RXF 393 renal, 15.8 µM; with EKVX NSCLC, 30.3 µM. In addition, the TGI in the test with K-562 leukemia was found to be 23.5 µM; with OVCAR-8 ovarian, 58.5 µM; in the test on CAKI-1 renal, 30.9 µM.
For the compound `Cc1ccc(S(=O)OCc2c(C)c(C)c(COS(=O)c3ccc(C)cc3)c(C)c2C)cc1` (stereo unspecified), the TGI with RPMI-8226 leukemia, with SF-268 CNS, in the test on SK-MEL-28 melanoma, in the test on RXF 393 renal, in the test with NCI-H460 lung and with EKVX NSCLC was > 100 µM throughout. In addition, the TGI with K-562 leukemia, in the test on OVCAR-8 ovarian and with CAKI-1 renal was > 100 µM throughout.
As for `Oc1ccc2ccccc2c1N=Nc1ccc(Br)cc1`, the TGI in the test on RPMI-8226 leukemia, in the test with CCRF-CEM leukemia, in the test with SF-268 CNS, with SK-MEL-28 melanoma, with RXF 393 renal and in the test with EKVX NSCLC was > 100 µM in each case. Moreover, the TGI in the test on K-562 leukemia, in the test with OVCAR-8 ovarian and with CAKI-1 renal was > 100 µM each time.
For the compound `CN(C)c1ncnc2c1ncn2CCn1cnc2c(N(C)C)ncnc21`, the concentration for total growth inhibition (TGI) in the test on RPMI-8226 leukemia, in the test with CCRF-CEM leukemia, in the test on SF-268 CNS, with SK-MEL-28 melanoma, in the test on RXF 393 renal and in the test with NCI-H460 lung was > 100 µM each time. The TGI with EKVX NSCLC, with OVCAR-8 ovarian and with CAKI-1 renal was > 100 µM throughout.
